{"source": "patent US10966978B2", "about": "“Dose and regimen for HDM2-p53 interaction inhibitors” (Novartis AG, priority 2016, dated 2021)", "key": {"[1]": {"system": "human SJSA-1 (osteosarcoma) xenograft", "experiment": "PK/PD tumor growth modelling, human SJSA-1 xenograft rat model", "format": "in vivo", "details": "predicted preclinical target", "protocol": "Calculation of average dose level (mg/day):\nTo further support the preferred dose for HDM201, compartmental PK modeling was used to estimate the individual average concentration per cycle for the 9 patients treated at 120 mg on regimen 1B (FIG. 2). For the majority of patients (7 out of 9), the estimated average drug concentrations per cycle were near or above the most conservative average tumor stasis concentration of ≈41 ng/mL per cycle determined from PKPD modeling of preclinical data (human SJSA-1 xenograft rat model)."}, "[2]": {"experiment": "Clinical PK of HDM201 in patients (non-compartmental and population PK), study HDM201X2101", "format": "in vivo, human", "details": "for Tmax / Cmax / AUC(0-t): human, plasma, oral; for Tmax: read-out: Tmax, median; for Cmax: read-out: Cmax, Geo Mean (% CV); for AUC(0-t): read-out: AUClast (0-24 h), Geo Mean (% CV)", "protocol": "Pharmacokinetic data have been evaluated throughout the course of the dose escalation. Two HDM201 drug variants have been evaluated during the course of the study (refer to the protocol for further details). […] Furthermore, an integrated analysis of all available HDM201 concentrations was conducted using a population approach. The PK of HDM201 was best described by a 1-compartment PK model with a delayed zero- and first-order absorption process, and a linear clearance. Body weight was identified as a statistically significant covariate on apparent central volume of distribution (Vc/F), in which Vc/F increased with increasing body weight.\nInter-patient variability (CV % Geo-mean) in exposure was generally low to moderate. Compartmental population PK modeling of NVP-HDM201 was used to estimate the individual average plasma concentration for Cycle 1 and to allow comparison with preclinical average concentration for tumor stasis derived by PK/PD tumor growth modeling.\nThe PK of HDM201 have been evaluated in the ongoing single agent Phase I clinical trial in patients with solid tumors and hematological malignancies (HDM201X2101). Patients have been treated with a single dose on Day 1 in a three-week cycle (q3w, regimen 1A), with a single dose on Day 1 and Day 8 in a four-week cycle (d1 and d8 of 4 w cycle, regimen 1B), or with daily dosing for the first 7 or 14 days in a four-week cycle (regimen 2C [q.d., 1 w on/3 w off] or regimen 2A [q.d., 2 w on/2 w off], respectively). PK assessments were conducted following single dose and repeated administration. Preliminary PK parameters from non-compartmental analysis of plasma concentration-time profiles are summarized by dose regimen and tumor type (data cut-off 1 Apr. 2016). PK parameters for Regimen 2A (Day 1 and 14 of Cycle 1 for doses from 1 to 20 mg) and Regimen 1A (Day 1 of Cycle 1 for doses from 12.5 to 350 mg) in solid tumor patients are summarized as representative of the PK for daily and less frequent dosing regimens (Tables 9, 10 and 11).\nFollowing oral dosing (HDM201 capsule, fasted), the median time to reach maximum plasma concentrations ranged from 2.0 to 5.8 h across the dose range (2 to 350 mg). With the daily dosing regimen, HDM201 steady-state was generally reached by Day 8, and accumulation was less than 2-fold. […]\nFurthermore, the individual PK data was best described by a 1-compartment PK model with a delayed zero- and first-order absorption process (data cut-off 1 Apr. 2016). […] Body weight was identified as a statistically significant covariate on Vc/F."}, "[3]": {"details": "Regimen 1A 12.5 mg, Day 1 single dose, solid malignancies, N = 1"}, "[4]": {"details": "Regimen 1A 25 mg, Day 1 single dose, solid malignancies, N = 1"}, "[5]": {"details": "Regimen 1A 50 mg, Day 1 single dose, solid malignancies, N = 4"}, "[6]": {"details": "Regimen 1A 100 mg, Day 1 single dose, solid malignancies, N = 4"}, "[7]": {"details": "Regimen 1A 200 mg, Day 1 single dose, solid malignancies, N = 5"}, "[8]": {"details": "Regimen 2A 1 mg daily, Day 14, solid malignancies, N = 1"}, "[9]": {"details": "Regimen 2A 2 mg daily, Day 14, solid malignancies, N = 2"}, "[10]": {"details": "Regimen 2A 4 mg daily, Day 14, solid malignancies, N = 3"}, "[11]": {"details": "Regimen 2A 15 mg daily, Day 14, solid malignancies, N = 4"}, "[12]": {"details": "Regimen 2A 15 mg, Day 1 single dose, solid malignancies, N = 4"}, "[13]": {"details": "1 mg, Regimen 2A 1 mg, Day 1 single dose, solid malignancies, N = 1"}, "[14]": {"details": "2 mg, Regimen 2A 2 mg, Day 1 single dose, solid malignancies, N = 2"}, "[15]": {"details": "4 mg, Regimen 2A 4 mg, Day 1 single dose, solid malignancies, N = 4"}, "[16]": {"details": "7.5 mg, Regimen 2A 7.5 mg daily, Day 14, solid malignancies, N = 2"}}, "note": "Read-outs that look alike come from different tables or passages of the source.", "data": [{"smiles": "COc1ncc(-c2nc3c(n2C(C)C)[C@H](c2ccc(Cl)cc2)N(c2cc(Cl)cn(C)c2=O)C3=O)c(OC)n1", "note": "[HDM201, (S)-5-(5-Chloro-1-methyl-2-oxo-1,2-dihydro-pyridin-3-yl)-6-(4-chloro-phenyl)-2-(2,4-dimethoxy-pyrimidin-5-yl)-1-isopropyl-5,6-dihydro-1H-pyrrolo[3,4-d]imidazol-4-one]", "values": [{"measurement": "average concentration (target efficacious level) for 95% tumor regression", "setting": "[1]", "value": 120, "unit": "ng/mL"}, {"measurement": "AUClast (0-24 h), Geo Mean (% CV)", "setting": "[2]; [3]", "value": 1483.1, "unit": "ng·h/mL"}, {"measurement": "Cmax, Geo Mean (% CV)", "setting": "[2]; [3]", "value": 118.0, "unit": "ng/mL"}, {"measurement": "T½, Geo Mean (% CV)", "setting": "[2]; [3]", "value": 7.2, "unit": "h"}, {"measurement": "AUClast (0-24 h), Geo Mean (% CV)", "setting": "[2]; [4]", "value": 1773.6, "unit": "ng·h/mL"}, {"measurement": "T½, Geo Mean (% CV)", "setting": "[2]; [4]", "value": 31.1, "unit": "h"}, {"measurement": "AUClast (0-24 h), Geo Mean (% CV)", "setting": "[2]; [5]", "value": "8028.8 (25.6) ng * hr/mL"}, {"measurement": "Cmax, Geo Mean (% CV)", "setting": "[2]; [5]", "value": "467.0 (13.0) ng/mL"}, {"measurement": "AUClast (0-24 h), Geo Mean (% CV)", "setting": "[2]; [6]", "value": "14287.0 (58.5) ng * hr/mL"}, {"measurement": "Cmax, Geo Mean (% CV)", "setting": "[2]; [6]", "value": "663.3 (30.1) ng/mL"}, {"measurement": "AUClast (0-24 h), Geo Mean (% CV)", "setting": "[2]; [7]", "value": "26255.2 (56.2) ng * hr/mL"}, {"measurement": "Cmax, Geo Mean (% CV)", "setting": "[2]; [7]", "value": "1168.8 (43.7) ng/mL"}, {"measurement": "AUClast (0-24 h), Geo Mean (% CV)", "setting": "[2]; [8]", "value": 99.5, "unit": "ng·h/mL"}, {"measurement": "Cmax, Geo Mean (% CV)", "setting": "[2]; [8]", "value": 14.9, "unit": "ng/mL"}, {"measurement": "AUClast (0-24 h), Geo Mean (% CV)", "setting": "[2]; Regimen 2A 1 mg, Day 1 single dose, solid malignancies, N = 1", "value": 134.3, "unit": "ng·h/mL"}, {"measurement": "AUClast (0-24 h), Geo Mean (% CV)", "setting": "[2]; [9]", "value": "109.3 (6.0) ng * hr/mL"}, {"measurement": "Cmax, Geo Mean (% CV)", "setting": "[2]; [9]", "value": "17.5 (4.9) ng/mL"}, {"measurement": "AUClast (0-24 h), Geo Mean (% CV)", "setting": "[2]; Regimen 2A 2 mg, Day 1 single dose, solid malignancies, N = 2", "value": "169.1 (31.5) ng * hr/mL"}, {"measurement": "AUClast (0-24 h), Geo Mean (% CV)", "setting": "[2]; [10]", "value": "155.0 (21.7) ng * hr/mL"}, {"measurement": "Cmax, Geo Mean (% CV)", "setting": "[2]; [10]", "value": "25.6 (23.9) ng/mL"}, {"measurement": "Cmax, Geo Mean (% CV)", "setting": "[2]; Regimen 2A 4 mg, Day 1 single dose, solid malignancies, N = 4", "value": "17.6 (22.8) ng/mL"}, {"measurement": "AUClast (0-24 h), Geo Mean (% CV)", "setting": "[2]; Regimen 2A 7.5 mg, Day 1 single dose, solid malignancies, N = 4", "value": "598.1 (49.8) ng * hr/mL"}, {"measurement": "AUClast (0-24 h), Geo Mean (% CV)", "setting": "[2]; [11]", "value": "688.8 (29.2) ng * hr/mL"}, {"measurement": "Cmax, Geo Mean (% CV)", "setting": "[2]; [11]", "value": "106.0 (27.9) ng/mL"}, {"measurement": "AUClast (0-24 h), Geo Mean (% CV)", "setting": "[2]; [12]", "value": "1301.6 (71.0) ng * hr/mL"}, {"measurement": "Cmax, Geo Mean (% CV)", "setting": "[2]; [12]", "value": "91.5 (56.9) ng/mL"}, {"measurement": "accumulation upon daily dosing", "setting": "[2]; daily dosing", "value": "limited accumulation"}, {"measurement": "accumulation", "setting": "[2]; daily dosing regimen", "value": "less than 2 fold"}, {"measurement": "steady-state reached by", "setting": "[2]; daily dosing regimen", "value": "≤ 8", "unit": "days"}, {"measurement": "Tmax", "setting": "[2]; 1 mg, Regimen 2A 1 mg daily, Day 14, solid malignancies, N = 1", "value": 4, "unit": "h"}, {"measurement": "Cmax", "setting": "[2]; [13]", "value": 7.9, "unit": "ng/mL"}, {"measurement": "Tmax", "setting": "[2]; [13]", "value": 8, "unit": "h"}, {"measurement": "Tmax", "setting": "[2]; 2 mg, Regimen 2A 2 mg daily, Day 14, solid malignancies, N = 2", "value": 3.9, "unit": "h"}, {"measurement": "Cmax", "setting": "[2]; [14]", "value": 12, "unit": "ng/mL"}, {"measurement": "Tmax", "setting": "[2]; [14]", "value": 3.4, "unit": "h"}, {"measurement": "Tmax", "setting": "[2]; 4 mg, Regimen 2A 4 mg daily, Day 14, solid malignancies, N = 3", "value": 4, "unit": "h"}, {"measurement": "AUC(0-t)", "setting": "[2]; [15]", "value": 193, "unit": "ng·h/mL"}, {"measurement": "Tmax", "setting": "[2]; [15]", "value": 2.5, "unit": "h"}, {"measurement": "AUC(0-t)", "setting": "[2]; [16]", "value": 222, "unit": "ng·h/mL"}, {"measurement": "Cmax", "setting": "[2]; [16]", "value": 36.1, "unit": "ng/mL"}]}]}
